ChEMBL document CHEMBL1150086, “New steroid acids from Antrodia cinnamomea, a fungal parasite of Cinnamomum micranthum” (J Nat Prod, 1995)
Values after ≈ are worked out from the molar mass of the structure shown.

Each compound was assayed on P388 (assay: Cytotoxicity against mouse P388 cells after 72 hrs). Settings: P388, 72 h.
Type: functional, cell-based

Compound | IC50 [µg/mL]
C=C(CC[C@@H](C)[C@H]1CC[C@H]2C3=C(C(=O)[C@H](O)[C@]12C)[C@@]1(C)CC[C@@H](O)[C@@H](C)[C@@H]1CC3=O)C(C)C(=O)O (stereo partly drawn) [ZHANKUIC ACID C] | 5.4 (≈ 11.1 µM)
C=C(CC[C@@H](C)[C@H]1CC[C@H]2C3=C(C(=O)C[C@]12C)[C@@]1(C)CCC(=O)[C@@H](C)[C@@H]1CC3=O)C(C)C(=O)O (stereo partly drawn) [ZHANKUIC ACID A] | 1.8 (≈ 3.84 µM)
CO[C@H](C(=O)[C@@H](O)[C@@H](C)O)[C@@H]1Cc2cc3cc(O[C@H]4C[C@@H](O[C@@H]5C[C@@H](O)[C@H](O)[C@@H](C)O5)[C@H](O)[C@@H](C)O4)c(C)c(O)c3c(O)c2C(=O)[C@H]1O[C@H]1C[C@@H](O[C@@H]2C[C@@H](O)[C@@H](O[C@@H]3C[C@](C)(O)[C@H](O)[C@@H](C)O3)[C@@H](C)O2)[C@H](O)[C@@H](C)O1 [PLICAMYCIN] | 0.06 (≈ 0.0553 µM)
